# Test results reported in US20220411471A1, “CELL-PERMEABLE CYCLIC PEPTIDES AND USES THEREOF” (Unnatural Products Inc., priority 2019, published 2022).
# Non-standard residues stand in square brackets, D forms with d. Residues, ends and D or L forms follow the SMILES beside them. Phe(4-Cl) = N[C@@H](Cc1ccc(Cl)cc1)C(=O)O; Phe(3-F) = N[C@@H](Cc1cccc(F)c1)C(=O)O; Phe(4-F) = N[C@@H](Cc1ccc(F)cc1)C(=O)O; 3Pal = N[C@@H](Cc1cccnc1)C(=O)O; NMeL = CN[C@@H](CC(C)C)C(=O)O; dNMeV = CN[C@@H](C(=O)O)C(C)C; Tle = CC(C)(C)[C@H](N)C(=O)O; dPip = O=C(O)[C@H]1CCCCN1; NMeA = CN[C@@H](C)C(=O)O; Nme = COCCNCC(=O)O
# Target: T1, Human MDM2 (HDM2) 1-116 (Homo sapiens, UniProt Q00987)
# T1 construct: Human MDM2 (HDM2) 1-116
# Assay: Fluorescence polarization assay, MDM2/p53 (Table 3)
# Assay type: binding
# Description: (§1) Human MDM2 (HDM2) 1-116 (20 μL) and FITC-labeled p53 (18-26), 50 nM and 10 nM respectively in 10 mM Tris, 50 mM NaCl, 0.01% Tween20, and 1 mM DTT at pH 7.4 were dispensed into an opaque, black, 384 well plate. Compounds dissolved in DMSO were pin transferred (˜200 nL) to the 384 well plate containing the MDM2/p53 solution. After incubation for 10 minutes, the fluorescence polarization was read on a Molecular Devices SpectraMax plate reader equipped with a Fluorescein FP cartridge. In addition to probe alone (positive control) and probe/MDM2 (negative control), a titration of linear p53(18-26) was included on every plate as an additional control. IC50 values were fit using either Prism or Collaborative Drug Discovery.
# as §1, with “and FAM-labeled RFMDYWEGL-NH2,” for “and FITC-labeled p53 (18-26),”, “NaCl, 0.010%” for “NaCl, 0.01%”, “transferred (˜100-200” for “transferred (˜200”, “for 60” for “for 10”
# T1 sequence (Q00987 1-116): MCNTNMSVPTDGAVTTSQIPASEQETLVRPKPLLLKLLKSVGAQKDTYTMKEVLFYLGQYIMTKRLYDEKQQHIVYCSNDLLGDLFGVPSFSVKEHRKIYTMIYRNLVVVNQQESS
row,SMILES,IC50 [nM]
1,"C[C@H]1C(=O)N[C@@H](Cc2cccnc2)C(=O)N2CCC[C@@H]2C(=O)N(C)[C@@H](C)C(=O)N[C@@H](Cc2ccc(F)cc2)C(=O)N[C@@H](C(C)(C)C)C(=O)N[C@@H](Cc2ccc(Cl)cc2)C(=O)N2CCCC[C@@H]2C(=O)N2CCC[C@H]2C(=O)N[C@@H](Cc2ccccc2)C(=O)N1C [Compound 26, C[C@@H]1N(C)C(=O)[C@H]2CCCN2C(=O)[C@H](Cc2cccnc2)NC(=O)[C@H](C)N(C)C(=O)[C@H](Cc2ccccc2)NC(=O)[C@@H]2CCCN2C(=O)[C@H]2CCCCN2C(=O)[C@H](Cc2ccc(Cl)cc2)NC(=O)[C@@H](NC(=O)[C@H](Cc2ccc(F)cc2)NC1=O)C(C)(C)C] (cyclo([3Pal][dP][NMeA][Phe(4-F)][Tle][Phe(4-Cl)][dPip]PF[NMeA]))",< 1000
2,"C[C@H]1C(=O)N[C@@H](Cc2ccc(Cl)cc2)C(=O)N2CCCC[C@@H]2C(=O)N2CCC[C@H]2C(=O)N[C@@H](Cc2ccccc2)C(=O)N[C@@H](C(C)(C)C)C(=O)N[C@@H](Cc2cccnc2)C(=O)N2CCCC[C@@H]2C(=O)N(C)[C@@H](C)C(=O)N[C@@H](Cc2ccc(F)cc2)C(=O)N1C [Compound 28, C[C@@H]1N(C)C(=O)[C@H]2CCCCN2C(=O)[C@H](Cc2cccnc2)NC(=O)[C@@H](NC(=O)[C@H](Cc2ccccc2)NC(=O)[C@@H]2CCCN2C(=O)[C@H]2CCCCN2C(=O)[C@H](Cc2ccc(Cl)cc2)NC(=O)[C@H](C)N(C)C(=O)[C@H](Cc2ccc(F)cc2)NC1=O)C(C)(C)C] (cyclo([3Pal][dPip][NMeA][Phe(4-F)][NMeA][Phe(4-Cl)][dPip]PF[Tle]))",1000 to 2500
3,"C[C@H]1C(=O)N[C@@H](Cc2ccc(Cl)cc2)C(=O)N2CCCC[C@@H]2C(=O)N2CCC[C@H]2C(=O)N[C@@H](Cc2ccccc2)C(=O)N[C@@H](C(C)(C)C)C(=O)N[C@@H](Cc2ccc(O)cc2)C(=O)N2CCC[C@@H]2C(=O)N(C)[C@@H](C)C(=O)N[C@@H](Cc2ccc(F)cc2)C(=O)N1C [Compound 10, [H]Oc1ccc(C[C@@H]2NC(=O)[C@@H](NC(=O)[C@H](Cc3ccccc3)NC(=O)[C@@H]3CCCN3C(=O)[C@H]3CCCCN3C(=O)[C@H](Cc3ccc(Cl)cc3)NC(=O)[C@H](C)N(C)C(=O)[C@H](Cc3ccc(F)cc3)NC(=O)[C@H](C)N(C)C(=O)[C@H]3CCCN3C2=O)C(C)(C)C)cc1] (cyclo(F[Tle]Y[dP][NMeA][Phe(4-F)][NMeA][Phe(4-Cl)][dPip]P))",1000 to 2500
4,"COCCN1CC(=O)N(C)[C@@H](C)C(=O)N[C@@H](Cc2ccc(F)cc2)C(=O)N(C)[C@@H](C)C(=O)N[C@@H](Cc2ccc(Cl)cc2)C(=O)N(C)[C@H](C(C)C)C(=O)N2CCC[C@H]2C(=O)N[C@@H](Cc2ccccc2)C(=O)N[C@@H](C(C)(C)C)C(=O)N[C@@H](Cc2cccc(F)c2)C1=O [Compound 24, COCCN1CC(=O)N(C)[C@@H](C)C(=O)N[C@@H](Cc2ccc(F)cc2)C(=O)N(C)[C@@H](C)C(=O)N[C@@H](Cc2ccc(Cl)cc2)C(=O)N(C)[C@H](C(C)C)C(=O)N2CCC[C@H]2C(=O)N[C@@H](Cc2ccccc2)C(=O)N[C@H](C(=O)N[C@@H](Cc2cccc(F)c2)C1=O)C(C)(C)C] (cyclo(F[Tle][Phe(3-F)][Nme][NMeA][Phe(4-F)][NMeA][Phe(4-Cl)][dNMeV]P))",1000 to 2500
5,"COCCN1CC(=O)N(C)[C@@H](C)C(=O)N[C@@H](Cc2ccc(F)cc2)C(=O)N(C)[C@@H](C)C(=O)N[C@@H](Cc2ccc(Cl)cc2)C(=O)N(C)[C@H](C(C)C)C(=O)N2CCC[C@H]2C(=O)N[C@@H](Cc2ccccc2)C(=O)N[C@@H](C(C)(C)C)C(=O)N[C@@H](Cc2ccc(O)cc2)C1=O [Compound 31, [H]Oc1ccc(C[C@@H]2NC(=O)[C@@H](NC(=O)[C@H](Cc3ccccc3)NC(=O)[C@@H]3CCCN3C(=O)[C@@H](C(C)C)N(C)C(=O)[C@H](Cc3ccc(Cl)cc3)NC(=O)[C@H](C)N(C)C(=O)[C@H](Cc3ccc(F)cc3)NC(=O)[C@H](C)N(C)C(=O)CN(CCOC)C2=O)C(C)(C)C)cc1] (cyclo(F[Tle]Y[Nme][NMeA][Phe(4-F)][NMeA][Phe(4-Cl)][dNMeV]P))",≥ 5000

# Results, then the compound that gave them:
row,IC50 [nM],SMILES
1,< 1000,"CC(C)C[C@H]1C(=O)N[C@@H](CC(=O)O)C(=O)N[C@@H](Cc2ccc(F)cc2)C(=O)N[C@@H](CCC(=O)O)C(=O)N[C@@H](Cc2ccc(Cl)cc2)C(=O)N2CCC[C@@H]2C(=O)N2CCC[C@H]2C(=O)N[C@@H](Cc2ccccc2)C(=O)N[C@@H](CCC(=O)O)C(=O)N[C@@H](Cc2c[nH]c3ccccc23)C(=O)N1C [Compound 4, [H]OC(=O)CC[C@@H]1NC(=O)[C@H](Cc2ccccc2)NC(=O)[C@@H]2CCCN2C(=O)[C@H]2CCCN2C(=O)[C@H](Cc2ccc(Cl)cc2)NC(=O)[C@H](CCC(=O)O[H])NC(=O)[C@H](Cc2ccc(F)cc2)NC(=O)[C@H](CC(=O)O[H])NC(=O)[C@H](CC(C)C)N(C)C(=O)[C@H](Cc2cn([H])c3ccccc23)NC1=O] (cyclo(FEW[NMeL]D[Phe(4-F)]E[Phe(4-Cl)][dP]P))"
2,1000 to 2500,"C[C@H]1C(=O)N[C@@H](Cc2ccc(Cl)cc2)C(=O)N2CCCC[C@@H]2C(=O)N2CCC[C@H]2C(=O)N[C@@H](Cc2ccc(O)cc2)C(=O)N[C@@H](CCC(=O)O)C(=O)N[C@@H](Cc2cccnc2)C(=O)N2CCC[C@@H]2C(=O)N(C)[C@@H](C)C(=O)N[C@@H](Cc2ccc(F)cc2)C(=O)N1C [Compound 15, [H]OC(=O)CC[C@@H]1NC(=O)[C@H](Cc2ccc(O[H])cc2)NC(=O)[C@@H]2CCCN2C(=O)[C@H]2CCCCN2C(=O)[C@H](Cc2ccc(Cl)cc2)NC(=O)[C@H](C)N(C)C(=O)[C@H](Cc2ccc(F)cc2)NC(=O)[C@H](C)N(C)C(=O)[C@H]2CCCN2C(=O)[C@H](Cc2cccnc2)NC1=O] (cyclo([3Pal][dP][NMeA][Phe(4-F)][NMeA][Phe(4-Cl)][dPip]PYE))"
3,< 1000,"C[C@H]1C(=O)N[C@@H](Cc2ccc(F)cc2)C(=O)N[C@@H](CCC(=O)O)C(=O)N[C@@H](Cc2ccccc2)C(=O)N2CCCC[C@@H]2C(=O)N2CCC[C@H]2C(=O)N[C@@H](Cc2ccccc2)C(=O)N[C@@H](CCC(=O)O)C(=O)N[C@@H](Cc2c[nH]c3ccccc23)C(=O)N2CCC[C@@H]2C(=O)N1C [Compound 9, [H]OC(=O)CC[C@@H]1NC(=O)[C@H](Cc2ccccc2)NC(=O)[C@@H]2CCCN2C(=O)[C@H]2CCCCN2C(=O)[C@H](Cc2ccccc2)NC(=O)[C@H](CCC(=O)O[H])NC(=O)[C@H](Cc2ccc(F)cc2)NC(=O)[C@H](C)N(C)C(=O)[C@H]2CCCN2C(=O)[C@H](Cc2cn([H])c3ccccc23)NC1=O] (cyclo(EF[dPip]PFEW[dP][NMeA][Phe(4-F)]))"
4,1000 to 2500,"CC(C)C[C@@H]1NC(=O)[C@H](Cc2c[nH]c3ccccc23)NC(=O)[C@H](CCC(=O)O)NC(=O)[C@H](Cc2ccccc2)NC(=O)[C@@H]2CCCN2C(=O)[C@H]2CCCN2C(=O)[C@H](Cc2ccccc2)NC(=O)[C@H](CCC(=O)O)NC(=O)[C@H](Cc2c[nH]c3ccccc23)NC(=O)[C@H](CC(=O)O)NC1=O [Compound 2, [H]OC(=O)CC[C@@H]1NC(=O)[C@H](Cc2cn([H])c3ccccc23)NC(=O)[C@H](CC(=O)O[H])NC(=O)[C@H](CC(C)C)NC(=O)[C@H](Cc2cn([H])c3ccccc23)NC(=O)[C@H](CCC(=O)O[H])NC(=O)[C@H](Cc2ccccc2)NC(=O)[C@@H]2CCCN2C(=O)[C@H]2CCCN2C(=O)[C@H](Cc2ccccc2)NC1=O] (cyclo(FEWLDWEF[dP]P))"
